“And” between values parts separate entries of the source, which are not always exact repeats. Equal entries are not always repeated. Where two headings read alike, the source gives them in different places. Residues, ends and D or L forms follow the SMILES beside them. *: point of attachment. Cbz = O=C(OCc1ccccc1)*
Columns and labels:
[1] = target: T1, EGFR(L858R)/SHC1 (Homo sapiens, UniProt P00533, L858R); test: Western blot of EGFR(L858R)-SHC1 splicing; format: cell-based; conditions: inhibitor 100 nM, 16 h
T1 construct: β10-IN (tNLuc β10 peptide + GP41-1 split intein N fragment) (C); V5; expressed in transfected cells

[2] = target: T2, EGFR(WT)/SHC1 (Homo sapiens, UniProt P00533); test: Western blot of EGFR(WT)-SHC1 splicing; format: cell-based; conditions: inhibitor 100 nM, 16 h
T2 construct: β10-IN (tNLuc β10 peptide + GP41-1 split intein N fragment) (C); V5; expressed in transfected cells

[3] = target: T2, EGFR(WT)/SHC1; test: SIMPL2 assay EGFR(WT)/SHC1; format: cell-based; conditions: replicates 1-4;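 note: 0% is no doxycycline or compound and 100% is doxycycline without compound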
[4] = target: T1, EGFR(L858R)/SHC1; test: SIMPL2 assay EGFR(L858R)/SHC1; format: cell-based; conditions: replicates 1-4
[5] = target: T3, control (Homo sapiens, UniProt P01116, G12C); test: SIMPL2 assay, control of Fig. 3B-D; format: cell-based; conditions: replicates 1-4
T3 construct: IC-β9 (GP41-1 split intein C fragment + tNLuc β9 peptide) (N); FLAG; expressed in transfected cells

[6] = target: T4, BRD4/CRBN interaction (Homo sapiens, UniProt O60885+Q96SW2); test: SIMPL2 assay CRBN/BRD4 (PROTAC); format: cell-based; conditions: MG132 1 μM, ARV-825 3 h
T4 construct: β10-IN (tNLuc β10 peptide + GP41-1 split intein N fragment) (N); V5; IC-β9 (GP41-1 split intein C fragment + tNLuc β9 peptide) (N); FLAG; expressed in transfected cells

[7] = target: T5, FRB/FKBP1A interaction (Homo sapiens, UniProt P42345+P62942); test: SIMPL2 assay, rapamycin-mediated FRB/FKBP1A interaction; conditions: for SIMPL2 signal (Fig. EV1B): IN/IC format, replicates 1-4; for SIMPL2(%) (Fig. EV1C): NIN/IC format, replicates 1-3; for SIMPL2 signal (Fig. 1D source data): 2 h, expt 1-4
[8] = target: T5, FRB/FKBP1A interaction; parameters: method as in previous study; conditions: replicates 1-4, ref previous study, cited from earlier work; for ELISA signal (Fig. EV1B): IN/IC format; for ELISA_CIC signal (Fig. EV1C): NIN/IC format
[9] = target: T5, FRB/FKBP1A interaction; test: NanoBiT assay, rapamycin-mediated FRB/FKBP1A interaction; format: cell-based; conditions: 2 h, expt 1-4

T5 sequence (P42345 2012-2144 limits assumed): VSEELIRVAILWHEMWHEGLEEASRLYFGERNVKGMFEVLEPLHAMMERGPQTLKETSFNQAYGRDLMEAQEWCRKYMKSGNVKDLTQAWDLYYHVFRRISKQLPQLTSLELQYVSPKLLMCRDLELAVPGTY
T5 sequence (P62942 whole entry): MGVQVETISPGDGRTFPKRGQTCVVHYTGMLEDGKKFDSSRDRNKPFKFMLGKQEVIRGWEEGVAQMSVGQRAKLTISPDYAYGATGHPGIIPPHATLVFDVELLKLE
T3 sequence (P01116 1-185 isoform P01116-2 G12C limits assumed): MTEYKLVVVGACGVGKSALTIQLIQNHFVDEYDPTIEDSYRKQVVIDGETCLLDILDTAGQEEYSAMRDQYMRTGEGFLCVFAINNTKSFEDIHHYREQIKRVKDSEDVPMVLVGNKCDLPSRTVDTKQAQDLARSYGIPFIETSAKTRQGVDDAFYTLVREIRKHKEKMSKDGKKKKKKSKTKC
T4 sequence (Q96SW2 whole entry, the tested form may be a part): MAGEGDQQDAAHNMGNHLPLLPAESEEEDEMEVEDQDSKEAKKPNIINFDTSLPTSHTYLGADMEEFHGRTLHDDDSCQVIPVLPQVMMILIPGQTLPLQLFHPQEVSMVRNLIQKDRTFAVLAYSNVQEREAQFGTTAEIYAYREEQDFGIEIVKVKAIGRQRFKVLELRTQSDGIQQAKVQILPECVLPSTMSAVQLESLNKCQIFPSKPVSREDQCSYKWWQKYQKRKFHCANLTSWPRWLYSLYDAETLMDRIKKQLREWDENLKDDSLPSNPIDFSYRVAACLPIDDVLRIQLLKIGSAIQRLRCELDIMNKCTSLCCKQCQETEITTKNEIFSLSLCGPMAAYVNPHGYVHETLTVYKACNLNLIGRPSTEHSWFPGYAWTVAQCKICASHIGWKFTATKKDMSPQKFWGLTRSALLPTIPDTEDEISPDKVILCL
T4 sequence (Q16531 whole entry, further chain, the tested form may be a part): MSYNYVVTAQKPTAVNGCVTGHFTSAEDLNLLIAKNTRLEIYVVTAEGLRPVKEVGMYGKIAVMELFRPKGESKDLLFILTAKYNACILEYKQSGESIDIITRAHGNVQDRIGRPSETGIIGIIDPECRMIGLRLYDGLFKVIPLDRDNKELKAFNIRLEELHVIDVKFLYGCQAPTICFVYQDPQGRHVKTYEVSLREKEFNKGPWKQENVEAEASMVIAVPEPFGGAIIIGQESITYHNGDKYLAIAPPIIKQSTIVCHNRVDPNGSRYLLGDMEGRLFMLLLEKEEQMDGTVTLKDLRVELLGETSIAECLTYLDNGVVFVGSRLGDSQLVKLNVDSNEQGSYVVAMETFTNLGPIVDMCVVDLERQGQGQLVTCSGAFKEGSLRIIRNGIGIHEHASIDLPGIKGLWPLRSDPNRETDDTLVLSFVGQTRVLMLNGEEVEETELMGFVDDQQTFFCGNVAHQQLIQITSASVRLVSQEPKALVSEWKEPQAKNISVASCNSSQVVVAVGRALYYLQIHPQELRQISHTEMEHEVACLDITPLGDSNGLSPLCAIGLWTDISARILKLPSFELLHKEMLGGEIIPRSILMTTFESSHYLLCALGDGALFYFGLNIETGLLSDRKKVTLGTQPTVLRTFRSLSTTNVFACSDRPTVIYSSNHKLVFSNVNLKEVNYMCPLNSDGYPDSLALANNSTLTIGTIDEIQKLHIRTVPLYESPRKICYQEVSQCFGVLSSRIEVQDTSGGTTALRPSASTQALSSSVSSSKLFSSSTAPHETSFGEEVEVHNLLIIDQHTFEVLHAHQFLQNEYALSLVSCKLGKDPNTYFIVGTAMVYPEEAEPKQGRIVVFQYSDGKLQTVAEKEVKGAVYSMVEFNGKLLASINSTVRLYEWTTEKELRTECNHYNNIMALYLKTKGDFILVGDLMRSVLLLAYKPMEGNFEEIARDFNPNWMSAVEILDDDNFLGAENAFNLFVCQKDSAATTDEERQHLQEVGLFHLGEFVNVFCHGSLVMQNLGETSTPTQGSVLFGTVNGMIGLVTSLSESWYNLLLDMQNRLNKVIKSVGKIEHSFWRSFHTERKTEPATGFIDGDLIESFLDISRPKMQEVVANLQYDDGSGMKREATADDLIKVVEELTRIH

Compound: COc1cc2ncnc(Nc3cccc(Cl)c3)c2cc1OC [AG1478]
- splicing between EGFR(L858R) and SHC1 (western blot) [1]: reduced or abolished
- splicing between EGFR(WT) and SHC1 (western blot) [2]: reduced or abolished
- SIMPL2 signal, WT (Fig. 3B) ([3]; AG1478 6.4e-6 uM): 102.427 and 84.7059 and 104.371 and 106.871
- SIMPL2 signal, WT (Fig. 3B) ([3]; AG1478 3.2e-5 uM): 77.5953 and 99.0938 and 89.9278 and 95.7607
- SIMPL2 signal, WT (Fig. 3B) ([3]; AG1478 0.00016 uM): 73.3734 and 100.927 and 94.8163 and 93.2609
- SIMPL2 signal, WT (Fig. 3B) ([3]; AG1478 0.0008 uM): 88.6501 and 85.7058 and 98.1494 and 104.871
- SIMPL2 signal, WT (Fig. 3B) ([3]; AG1478 0.004 uM): 74.54 and 81.3728 and 67.2627 and 74.6511
- SIMPL2 signal, WT (Fig. 3B) ([3]; AG1478 0.02 uM): 70.0958 and 71.7624 and 65.6517 and 61.8742
- SIMPL2 signal, WT (Fig. 3B) ([3]; AG1478 0.1 uM): 65.485 and 59.9854 and 59.7632 and 57.8189
- SIMPL2 signal, WT (Fig. 3B) ([3]; AG1478 0.5 uM): 29.8764 and 30.6541 and 19.6549 and 21.0437
- SIMPL2 signal, L858R (Fig. 3B) ([4]; AG1478 6.4e-6 uM): 91.6588 and 97.6255 and 114.285 and 112.912
- SIMPL2 signal, L858R (Fig. 3B) ([4]; AG1478 3.2e-5 uM): 89.0187 and 76.3196 and 106.708 and 96.4903
- SIMPL2 signal, L858R (Fig. 3B) ([4]; AG1478 0.00016 uM): 80.0422 and 76.3461 and 104.596 and 91.474
- SIMPL2 signal, L858R (Fig. 3B) ([4]; AG1478 0.0008 uM): 78.2733 and 74.7356 and 79.963 and 75.2372
- SIMPL2 signal, L858R (Fig. 3B) ([4]; AG1478 0.004 uM): 44.1628 and 44.3476 and 45.9581 and 41.1531
- SIMPL2 signal, L858R (Fig. 3B) ([4]; AG1478 0.02 uM): 13.9069 and 29.2725 and 26.9756 and 25.1011
- SIMPL2 signal, L858R (Fig. 3B) ([4]; AG1478 0.1 uM): 16.4414 and 17.2863 and 10.8707 and 9.471
- SIMPL2 signal, L858R (Fig. 3B) ([4]; AG1478 0.5 uM): 3.505 and 4.482 and 4.93 and 3.98
- SIMPL2 signal, control (Fig. 3B) ([5]; AG1478 6.4e-6 uM): 78.4402 and 101.308 and 94.2905 and 84.6604
- SIMPL2 signal, control (Fig. 3B) ([5]; AG1478 3.2e-5 uM): 100.905 and 96.8875 and 97.961 and 100.282
- SIMPL2 signal, control (Fig. 3B) ([5]; AG1478 0.00016 uM): 91.8672 and 101.363 and 100.305 and 106.707
- SIMPL2 signal, control (Fig. 3B) ([5]; AG1478 0.0008 uM): 94.4089 and 99.0424 and 101.553 and 109.943
- SIMPL2 signal, control (Fig. 3B) ([5]; AG1478 0.004 uM): 91.5435 and 102.468 and 100.85 and 97.0453
- SIMPL2 signal, control (Fig. 3B) ([5]; AG1478 0.02 uM): 77.4062 and 87.6599 and 89.9806 (2×)
- SIMPL2 signal, control (Fig. 3B) ([5]; AG1478 0.1 uM): 82.8606 and 100.092 and 105.918 and 87.8651
- SIMPL2 signal, control (Fig. 3B) ([5]; AG1478 0.5 uM): 102.547 and 94.4247 and 100.724 and 111.159

Compound: CC(C)C[C@@H](C=O)NC(=O)[C@H](CC(C)C)NC(=O)[C@H](CC(C)C)NC(=O)OCc1ccccc1 [MG132] (Cbz-Leu-Leu-Leu-aldehyde)
- effect of MG132 co-treatment on ARV-825 SIMPL2 signals [6]: profoundly enhanced

Compound: CO[C@H]1C[C@@H]2CC[C@@H](C)[C@@](O)(O2)C(=O)C(=O)N2CCCC[C@H]2C(=O)O[C@H]([C@H](C)C[C@@H]2CC[C@@H](O)[C@H](OC)C2)CC(=O)[C@H](C)/C=C(\C)[C@@H](O)[C@@H](OC)C(=O)[C@H](C)C[C@H](C)/C=C/C=C/C=C/1C [rapamycin, Rapamycin]
- SIMPL2 signal (Fig. EV1B) ([7]; Rapa 0.0508 nM): 1.191 and 2.558 and 1.039 and 2.309
- SIMPL2 signal (Fig. EV1B) ([7]; Rapa 0.152 nM): 2.258 and 4.019 and 1.902 and 3.528
- SIMPL2 signal (Fig. EV1B) ([7]; Rapa 0.457 nM): 5.806 and 9.209 and 5.031 and 7.8055
- SIMPL2 signal (Fig. EV1B) ([7]; Rapa 1.372 nM): 16.8705 and 22.7506 and 15.2406 and 19.2387
- SIMPL2 signal (Fig. EV1B) ([7]; Rapa 4.115 nM): 40.6804 and 51.3157 and 39.8638 and 45.1426
- SIMPL2 signal (Fig. EV1B) ([7]; Rapa 37.037 nM): 89.8203 and 93.2241 and 91.2356 and 88.6383
- SIMPL2 signal (Fig. EV1B) ([7]; Rapa 111.111 nM): 100.397 and 91.658 and 100.471 and 94.6121
- SIMPL2 signal (Fig. EV1B) ([7]; Rapa 333.333 nM): 99.7113 and 97.9264 and 105.182 and 96.7419
- SIMPL2 signal (Fig. EV1B) ([7]; Rapa 1000 nM): 92.6509 and 96.5256 and 102.635 and 100.443
- SIMPL2(%) (Fig. EV1C) ([7]; Rapa 0.00188 nM): 0.8086% (2×) and 0.8386%
- SIMPL2(%) (Fig. EV1C) ([7]; Rapa 0.00565 nM): 0.599% and 0.6888% and 0.7487%
- SIMPL2(%) (Fig. EV1C) ([7]; Rapa 0.0508 nM): 0.9284% and 1.198% and 0.7188%
- SIMPL2(%) (Fig. EV1C) ([7]; Rapa 0.152 nM): 1.108% and 1.6472% and 0.8685%
- SIMPL2(%) (Fig. EV1C) ([7]; Rapa 0.457 nM): 4.972% and 3.534% and 2.636%
- SIMPL2(%) (Fig. EV1C) ([7]; Rapa 1.372 nM): 23.3303% and 15.2441% and 11.9197%
- SIMPL2(%) (Fig. EV1C) ([7]; Rapa 4.115 nM): 44.1749% and 37.1968% and 29.3801%
- SIMPL2(%) (Fig. EV1C) ([7]; Rapa 37.037 nM): 91.9736% and 88.0503% and 89.0686%
- SIMPL2(%) (Fig. EV1C) ([7]; Rapa 111.111 nM): 100.449% and 91.6442% and 102.935%
- SIMPL2(%) (Fig. EV1C) ([7]; Rapa 333.333 nM): 113.267% and 99.5508% and 95.867%
- SIMPL2(%) (Fig. EV1C) ([7]; Rapa 1000 nM): 95.5076% and 93.0518% and 96.2564%
- SIMPL2 signal (Fig. 1D source data) ([7]; Rapa 0.004115 uM): 47.8958 and 45.8282 and 46.7693 and 41.1245
- SIMPL2 signal (Fig. 1D source data) ([7]; Rapa 0.037037 uM): 84.8088 and 98.4637 and 120.48 and 94.9462
- SIMPL2 signal (Fig. 1D source data) ([7]; Rapa 0.111111 uM): 73.556 and 88.7889 and 90.3886 and 92.8218
- SIMPL2 signal (Fig. 1D source data) ([7]; Rapa 0.333333 uM): 97.7898 and 102.816 and 106.133 and 97.0409
- SIMPL2 signal (Fig. 1D source data) ([7]; Rapa 1 uM): 104.171 and 101.443 and 85.3933 and 107.112
- ELISA signal (Fig. EV1B) ([8]; Rapa 0.316 nM): 14.411 and 5.166 and 5.566 and 4.9879
- ELISA signal (Fig. EV1B) ([8]; Rapa 1 nM): 5.323 and 5.028 and 5.963 and 6.1023
- ELISA signal (Fig. EV1B) ([8]; Rapa 3.162 nM): 8.457 and 7.647 and 8.056 and 8.736
- ELISA signal (Fig. EV1B) ([8]; Rapa 10 nM): 15.9974 and 15.1146 and 16.574 and 16.0467
- ELISA signal (Fig. EV1B) ([8]; Rapa 31.623 nM): 37.8238 and 37.9493 and 40.1437 and 41.1072
- ELISA signal (Fig. EV1B) ([8]; Rapa 100 nM): 80.3098 and 67.0371 and 79.2492 and 77.5358
- ELISA signal (Fig. EV1B) ([8]; Rapa 316.228 nM): 106.072 and 95.5962 and 92.0797 and 90.9967
- ELISA signal (Fig. EV1B) ([8]; Rapa 1000 nM): 102.194 and 105.027 and 90.2049 and 93.6363
- ELISA_CIC signal (Fig. EV1C) ([8]; Rapa 0.3 nM): 3.444 and 2.886 and 2.936 and 2.873
- ELISA_CIC signal (Fig. EV1C) ([8]; Rapa 1 nM): 3.091 and 2.372 and 3.062 and 3.035
- ELISA_CIC signal (Fig. EV1C) ([8]; Rapa 3 nM): 3.502 and 3.836 and 3.666 and 4.333
- ELISA_CIC signal (Fig. EV1C) ([8]; Rapa 10 nM): 6.943 and 6.073 and 6.559 and 6.143
- ELISA_CIC signal (Fig. EV1C) ([8]; Rapa 30 nM): 20.4969 and 16.4946 and 19.9923 and 21.7284
- ELISA_CIC signal (Fig. EV1C) ([8]; Rapa 100 nM): 72.9918 and 58.0659 and 78.6932 and 64.2948
- ELISA_CIC signal (Fig. EV1C) ([8]; Rapa 300 nM): 105.102 and 112.879 and 88.9461
- ELISA_CIC signal (Fig. EV1C) ([8]; Rapa 1000 nM): 95.1776 and 93.559 and 93.0646 and 80.9326
- NanoBiT signal (Fig. 1D source data) ([9]; Rapa 0.004115 uM): 43.0075 and 49.8338 and 39.8143 and 26.5473
- NanoBiT signal (Fig. 1D source data) ([9]; Rapa 0.037037 uM): 98.7034 and 104.835 and 107.555 and 86.8025
- NanoBiT signal (Fig. 1D source data) ([9]; Rapa 0.111111 uM): 98.0138 and 85.7365 and 105.867 and 81.894
- NanoBiT signal (Fig. 1D source data) ([9]; Rapa 0.333333 uM): 102.818 and 83.4071 and 80.4272 and 114.561
- NanoBiT signal (Fig. 1D source data) ([9]; Rapa 1 uM): 95.0191 and 104.766 and 93.7327 and 91.3484

Reference: PMC11791039, “A split intein and split luciferase-coupled system for detecting protein-protein interactions” (Molecular Systems Biology, 2024)
